In patent publication US6642234B1, “Acrylonitrile compounds” (Nissan Chemical Industries, Ltd., priority 1998, dated 2003):

Legend:
[1] = test system: two-spotted spider mites (Tetranychus urticae); assay: Acaricidal test for two-spotted spider mites; format: in vivo; details: 500 ppm solution sprayed 2 ml/cup on larvae on kidney bean leaf discs; 25° C.; after 96 hours
Experimental: [Test Example 1] Acaricidal Test For Two-spotted Spider Mites (Tetranychus urticae)
The leaves of kidney bean plants were punched into 3.0 cm-diameter discs, using a leaf punch, and put onto moistured filter paper in a 7 cm-diameter styrol cup. Ten larvae of two-spotted spider mites (Tetranychus urticae) were put to each leaf. A 5% emulsion (or 25% wettable powder) of a compound of the invention was diluted with water containing a spreading agent to give a 500 ppm solution of the compound. The solution was sprayed over each cup in an amount of 2 ml/cup, using a rotary sprinkler, and the cups were stored in a thermostatic chamber at 25° C. After 96 hours passed, the mites in each cup were observed, and mortality of the mites was determined according to the following equation. Each compound was tested in that manner for two groups of dishes.
Mortality (%)=[number of insect killed/(number of insect killed+number of living insect)]×100

[2] = test system: citrus red mite (Panonychus citri); assay: Residual effect test for citrus red mite; format: in vivo; details: Table 4, spray solution 100 ppm, 48 hours
Experimental: Residual Effect Test for Citrus Red Mite (Panonychus citri)
A 5% emulsion (or 25% wettable powder) of a compound of the invention was diluted with water containing a spreading agent to give a solution of the compound with prescribed concentration. The solution was sprayed over each orange planted in a pot in an amount of 250 ml/pot, using a rotary sprinkler, and the pot were left in the open air. After the prescribed days, the leaves of orange plants were punched into 3.0 cm-diameter discs, using a leaf punch, and put onto moistured filter paper in a 7 cm-diameter styrol cup. Ten larvae of citrus red mite (Panonychus citri) were put to each leaf. Then, the cups were stored in a thermostatic chamber at 25° C. After 48 hours passed, the mites in each cup were observed, and mortality of the mites was determined according to the same equation as in Test Example 1. Each compound was tested in that manner for four groups of dishes.
In the test, the following Compound A described in WO97/40009 was used as a comparative compound. [drawing 35]

COc1ccccc1-n1nc(C)c(C(C#N)=C(OC(=O)C(C)(C)C)c2c(Cl)c(C)nn2C)n1 (mixture of isomers) [compound 62]
mortality [1]: ≥ 80%

Cc1nn(-c2ccccc2)nc1/C(C#N)=C(\OC(=O)C(C)(C)C)c1c(C(F)(F)F)nn(C)c1Cl [Compound A]
mortality at 100 ppm ([2]; 2 days left in the open air after spraying): 17.5%
mortality at 100 ppm ([2]; 4 days left in the open air after spraying): 40%

Cc1nc(C)c(C(O)=C(C#N)c2nn(-c3ccccc3)nc2C)s1 [Compound No. 20, 3-(2,4-Dimethylthiazol-5-yl)-3-hydroxy-2-(5-methyl-2-phenyl-1,2,3-triazol4-yl)acrylonitrile]
melting point: 117 to 118 °C
